In ChEMBL document CHEMBL1671692, “Intravenous voriconazole after toxic oral administration” (Antimicrob Agents Chemother, 2010):

Tests used:
Assay type in all cases: organism-based
Homo sapiens [1] = experiment: Toxicity in sphenoid sinus human patient assessed as occurrence of cutaneous reaction with red striae treatment increased upto 300 mg, po QID by biopsy hostopathological analysis; details: in vivo
Homo sapiens [2] = experiment: Toxicity in sphenoid sinus human patient assessed as occurrence of extended interface dermatitis with vacuolar alteration of the basilar epidermis treatment increased upto 300 mg, po QID by biopsy hostopathological analysis; details: in vivo
Homo sapiens [3] = experiment: Toxicity in sphenoid sinus human patient assessed as occurrence of superficial edema treatment increased upto 300 mg, po QID by biopsy hostopathological analysis; details: in vivo
Homo sapiens [4] = experiment: Toxicity in sphenoid sinus human patient assessed as occurrence of pseudoporphyria treatment increased upto 300 mg, po QID by biopsy hostopathological analysis; details: in vivo
Homo sapiens [5] = experiment: Toxicity in sphenoid sinus human patient assessed as occurrence of epidermolysis bullosa acquisita treatment increased upto 300 mg, po QID by biopsy hostopathological analysis; details: in vivo
Homo sapiens [6] = experiment: Toxicity in sphenoid sinus human patient assessed as occurrence of erythema multiforme treatment increased upto 300 mg, po QID by biopsy hostopathological analysis; details: in vivo
Homo sapiens [7] = experiment: Toxicity in sphenoid sinus human patient assessed as mild elevations in liver enzyme level treatment increased upto 500 mg, iv BID for 8 weeks; details: in vivo, 1344 h
Homo sapiens [8] = experiment: Toxicity in sphenoid sinus human patient assessed as recurrence of the cutaneous reaction treatment increased upto 500 mg, iv BID for 8 weeks; details: in vivo, 1344 h
Homo sapiens [9] = experiment: Toxicity in sphenoid sinus human patient assessed as desensitization to several types of adverse reactions at 500 mg, iv BID after 8 weeks; details: in vivo, 1344 h
Homo sapiens [10] = experiment: Toxicity in sphenoid sinus human patient assessed as increase in liver enzyme level treatment increased upto 300 mg, iv QID for 8 weeks measured after 2 weeks of treatment discontinuation; details: in vivo
Homo sapiens [11] = experiment: Toxicity in sphenoid sinus human patient assessed as apoptotic or necrotizing keratinocytes treatment increased upto 300 mg, po QID; details: in vivo
Homo sapiens [12] = experiment: Toxicity in sphenoid sinus human patient assessed as increase in liver enzyme level treatment increased upto 300 mg, iv QID relative to control; details: in vivo
Homo sapiens [13] = experiment: Toxicity in sphenoid sinus human patient assessed as inflammatory infiltration treatment increased upto 300 mg, po QID by biopsy hostopathological analysis; details: in vivo
Homo sapiens [14] = experiment: Toxicity in sphenoid sinus human patient assessed as cutaneous reaction treatment increased upto 300 mg, iv QID for 8 weeks measured after 2 weeks of treatment discontinuation; details: in vivo

Structure (SMILES): C[C@@H](c1ncncc1F)[C@](O)(Cn1cncn1)c1ccc(F)cc1F [VORICONAZOLE]
- Activity (Homo sapiens [1]): Toxic
- Activity (Homo sapiens [2]): Toxic
- Activity (Homo sapiens [3]): Toxic
- Activity (Homo sapiens [4]): Toxic
- Activity (Homo sapiens [5]): Toxic
- Activity (Homo sapiens [6]): Toxic
- Activity (Homo sapiens [7]): Toxic
- Activity (Homo sapiens [8]): Non-toxic
- Activity (Homo sapiens [9]): Non-toxic
- Activity (Homo sapiens [10]): Non-toxic
- Activity (Homo sapiens [11]): Non-toxic
- Activity (Homo sapiens [12]): Toxic
- Activity (Homo sapiens [13]): Non-toxic
- Activity (Homo sapiens [14]): Non-toxic
